Results on 1 molecule are retold here after patent US20230226199A1, “DENDRIMER COMPOSITIONS AND METHODS FOR DRUG DELIVERY” (Ashvattha Therapeutics, Inc., priority 2019, published 2023).

The assay deals with JAK1 (Homo sapiens, UniProt P23458). As to the kind of experiment: JAK1 binding affinity. From the text: An exemplary conjugation of JAK1 inhibitor Target-007 to a dendrimer is shown below (Structure XXXIII). JAK1 binding affinity of Target-007 is about […] and the binding affinity of dendrimer conjugated Target-007 is about […].
Chain of JAK1 (P23458 whole entry, species assumed): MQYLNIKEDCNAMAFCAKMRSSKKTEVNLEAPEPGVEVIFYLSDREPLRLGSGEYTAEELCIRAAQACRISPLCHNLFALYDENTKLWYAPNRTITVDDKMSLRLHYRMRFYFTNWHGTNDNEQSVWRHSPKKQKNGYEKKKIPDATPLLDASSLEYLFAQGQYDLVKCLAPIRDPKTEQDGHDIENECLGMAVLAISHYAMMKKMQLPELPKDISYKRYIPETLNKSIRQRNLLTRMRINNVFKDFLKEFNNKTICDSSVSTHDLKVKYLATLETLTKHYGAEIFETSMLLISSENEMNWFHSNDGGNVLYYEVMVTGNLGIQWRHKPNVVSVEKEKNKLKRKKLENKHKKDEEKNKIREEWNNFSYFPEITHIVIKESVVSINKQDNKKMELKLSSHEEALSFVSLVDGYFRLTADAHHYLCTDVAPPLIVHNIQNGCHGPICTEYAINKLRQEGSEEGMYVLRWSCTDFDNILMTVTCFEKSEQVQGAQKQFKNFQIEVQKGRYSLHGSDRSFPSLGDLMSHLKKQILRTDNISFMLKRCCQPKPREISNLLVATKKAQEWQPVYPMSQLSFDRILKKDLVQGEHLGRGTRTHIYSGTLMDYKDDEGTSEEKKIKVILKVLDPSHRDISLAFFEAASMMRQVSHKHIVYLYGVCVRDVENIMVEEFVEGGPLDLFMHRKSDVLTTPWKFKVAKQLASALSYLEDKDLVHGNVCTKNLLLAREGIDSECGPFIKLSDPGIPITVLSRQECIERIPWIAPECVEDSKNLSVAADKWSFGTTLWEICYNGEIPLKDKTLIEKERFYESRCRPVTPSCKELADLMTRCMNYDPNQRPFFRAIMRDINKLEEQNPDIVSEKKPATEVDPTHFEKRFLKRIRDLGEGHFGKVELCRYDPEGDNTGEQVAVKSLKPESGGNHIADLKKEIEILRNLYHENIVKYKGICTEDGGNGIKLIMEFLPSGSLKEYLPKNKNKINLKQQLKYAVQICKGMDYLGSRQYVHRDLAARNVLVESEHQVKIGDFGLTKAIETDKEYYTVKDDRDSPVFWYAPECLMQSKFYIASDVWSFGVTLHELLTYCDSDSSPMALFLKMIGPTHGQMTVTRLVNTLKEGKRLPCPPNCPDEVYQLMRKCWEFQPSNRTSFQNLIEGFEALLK

Take `COc1cc(-c2nc3c(NCC4CCNCC4)c(Cl)cnc3[nH]2)c(F)cc1OCCOCCOCCOCCN=[N+]=[N-]` [Target-007]: the Kd – broadly, a measure of binding affinity in units of concentration – is around 1 nM.
